Laboratory results taken from ChEMBL document CHEMBL4000244, “Probing A-form DNA: A fluorescent aminosugar probe and dual recognition by anthraquinone-neomycin conjugates” (Bioorg Med Chem, 2017).

Assays:
[1] = Binding affinity to 5'-CGCGCGGG-3' DNA hairpin assessed as change in fluorescence intensity at 1 uM after 45 mins by fluorescence quenching analysis relative to control
[2] = Binding affinity to 5'-GGCCGCCG-3' DNA hairpin assessed as change in fluorescence intensity at 1 uM after 45 mins by fluorescence quenching analysis relative to control
[3] = Binding affinity to 5'-GGCGGCGC-3' DNA hairpin assessed as change in fluorescence intensity at 1 uM after 45 mins by fluorescence quenching analysis relative to control
[4] = Binding affinity to 5'-CCGCGCCC-3' DNA hairpin assessed as change in fluorescence intensity at 1 uM after 45 mins by fluorescence quenching analysis relative to control
[5] = Binding affinity to 5'-CCGGGCGG-3' DNA hairpin assessed as change in fluorescence intensity at 1 uM after 45 mins by fluorescence quenching analysis relative to control
[6] = Binding affinity to 5'-CCCCCGGC-3' DNA hairpin assessed as change in fluorescence intensity at 1 uM after 45 mins by fluorescence quenching analysis relative to control
[7] = Binding affinity to 5'-CGGGGGCG-3' DNA hairpin assessed as change in fluorescence intensity at 1 uM after 45 mins by fluorescence quenching analysis relative to control
[8] = Binding affinity to 5'-CGCGGCGC-3' DNA hairpin assessed as change in fluorescence intensity at 1 uM after 45 mins by fluorescence quenching analysis relative to control
[9] = Binding affinity to 5'-GGGCGCCG-3' DNA hairpin assessed as change in fluorescence intensity at 1 uM after 45 mins by fluorescence quenching analysis relative to control
[10] = Binding affinity to 5'-CGGCGCCC-3' DNA hairpin assessed as change in fluorescence intensity at 1 uM after 45 mins by fluorescence quenching analysis relative to control
[11] = Binding affinity to 5'-CCGGCGGG-3' DNA hairpin assessed as change in fluorescence intensity at 1 uM after 45 mins by fluorescence quenching analysis relative to control
[12] = Binding affinity to 5'-GCCCGGCG-3' DNA hairpin assessed as change in fluorescence intensity at 1 uM after 45 mins by fluorescence quenching analysis relative to control
[13] = Binding affinity to 5'-GCCGGCCC-3' DNA hairpin assessed as change in fluorescence intensity at 1 uM after 45 mins by fluorescence quenching analysis relative to control
[14] = Binding affinity to 5'-CCCCCCCC-3' DNA hairpin assessed as change in fluorescence intensity at 1 uM after 45 mins by fluorescence quenching analysis relative to control
[15] = Binding affinity to 5'-GGCGCCGG-3' DNA hairpin assessed as change in fluorescence intensity at 1 uM after 45 mins by fluorescence quenching analysis relative to control
[16] = Binding affinity to 5'-GGCGCCGC-3' DNA hairpin assessed as change in fluorescence intensity at 1 uM after 45 mins by fluorescence quenching analysis relative to control
[17] = Binding affinity to 5'-CGCCCCGC-3' DNA hairpin assessed as change in fluorescence intensity at 1 uM after 45 mins by fluorescence quenching analysis relative to control
[18] = Binding affinity to 5'-GGGCCCCG-3' DNA hairpin assessed as change in fluorescence intensity at 1 uM after 45 mins by fluorescence quenching analysis relative to control
[19] = Binding affinity to 5'-GCGCGGGG-3' DNA hairpin assessed as change in fluorescence intensity at 1 uM after 45 mins by fluorescence quenching analysis relative to control
[20] = Binding affinity to 5'-CGCCCGGC-3' DNA hairpin assessed as change in fluorescence intensity at 1 uM after 45 mins by fluorescence quenching analysis relative to control
[21] = Binding affinity to 5'-CGGGCCGC-3' DNA hairpin assessed as change in fluorescence intensity at 1 uM after 45 mins by fluorescence quenching analysis relative to control
[22] = Binding affinity to 5'-GCCGGCGC-3' DNA hairpin assessed as change in fluorescence intensity at 1 uM after 45 mins by fluorescence quenching analysis relative to control
[23] = Binding affinity to 5'-GCGGGCCC-3' DNA hairpin assessed as change in fluorescence intensity at 1 uM after 45 mins by fluorescence quenching analysis relative to control
[24] = Binding affinity to 5'-CGGCGGGG-3' DNA hairpin assessed as change in fluorescence intensity at 1 uM after 45 mins by fluorescence quenching analysis relative to control
[25] = Binding affinity to 5'-CGCGGGGG-3' DNA hairpin assessed as change in fluorescence intensity at 1 uM after 45 mins by fluorescence quenching analysis relative to control
[26] = Binding affinity to 5'-GGGCGGCG-3' DNA hairpin assessed as change in fluorescence intensity at 1 uM after 45 mins by fluorescence quenching analysis relative to control
[27] = Binding affinity to 5'-CCCCGGCG-3' DNA hairpin assessed as change in fluorescence intensity at 1 uM after 45 mins by fluorescence quenching analysis relative to control
[28] = Binding affinity to 5'-CGGGCCCC-3' DNA hairpin assessed as change in fluorescence intensity at 1 uM after 45 mins by fluorescence quenching analysis relative to control
[29] = Binding affinity to 5'-GCCCCCGC-3' DNA hairpin assessed as change in fluorescence intensity at 1 uM after 45 mins by fluorescence quenching analysis relative to control
[30] = Binding affinity to 5'-GGCCGGCG-3' DNA hairpin assessed as change in fluorescence intensity at 1 uM after 45 mins by fluorescence quenching analysis relative to control
[31] = Binding affinity to 5'-CCGGGCCC-3' DNA hairpin assessed as change in fluorescence intensity at 1 uM after 45 mins by fluorescence quenching analysis relative to control
[32] = Binding affinity to 5'-CCGGCCGG-3' DNA hairpin assessed as change in fluorescence intensity at 1 uM after 45 mins by fluorescence quenching analysis relative to control
[33] = Binding affinity to 5'-GGGGCGCC-3' DNA hairpin assessed as change in fluorescence intensity at 1 uM after 45 mins by fluorescence quenching analysis relative to control
[34] = Binding affinity to 5'-GGCCCCGC-3' DNA hairpin assessed as change in fluorescence intensity at 1 uM after 45 mins by fluorescence quenching analysis relative to control
[35] = Binding affinity to 5'-CGCCCGGG-3' DNA hairpin assessed as change in fluorescence intensity at 1 uM after 45 mins by fluorescence quenching analysis relative to control
[36] = Binding affinity to 5'-CGGCCCGG-3' DNA hairpin assessed as change in fluorescence intensity at 1 uM after 45 mins by fluorescence quenching analysis relative to control

Activity [1]: 49.9%
Activity [2]: 40.7%
Activity [3]: 50.6%
Activity [4]: 52.4%
Activity [5]: 50.1%
Activity [6]: 33.7%
Activity [7]: 41.1%
Activity [8]: 52.5%
Activity [9]: 50.6%
Activity [10]: 45.2%
Activity [11]: 49.1%
Activity [12]: 51.9%
Activity [13]: 37.6%
Activity [14]: 15%
Activity [15]: 53.2%
Activity [16]: 48.4%
Activity [17]: 38%
Activity [18]: 18.1%
Activity [19]: 43.1%
Activity [20]: 46.6%
Activity [21]: 52.5%
Activity [22]: 51.9%
Activity [23]: 47.8%
Activity [24]: 50.8%
Activity [25]: 40.6%
Activity [26]: 52.7%
Activity [27]: 50%
Activity [28]: 35.1%
Activity [29]: 23.6%
Activity [30]: 47.6%
Activity [31]: 38.9%
Activity [32]: 49.1%
Activity [33]: 51.4%
Activity [34]: 21.3%
Activity [35]: 47.2%
Activity [36]: 54.4%
SMILES: NCC1O[C@H](O[C@H]2[C@@H](O)[C@H](O[C@@H]3[C@@H](O)[C@H](N)C[C@H](N)[C@H]3O[C@H]3O[C@H](CN)[C@@H](O)[C@H](O)[C@H]3N)O[C@@H]2CSCCNC(=O)CCSCC(=O)Nc2ccc(-c3c4ccc(=O)cc-4oc4cc(O)ccc34)c(C(=O)O)c2)[C@H](N)[C@@H](O)[C@@H]1O (stereo partly specified)
